The target of the assay is human MRGPRD (Homo sapiens, UniProt Q8TDS7). The assay is described as follows: MRGPRD antagonist activity, IP-One HTRF assay in CHO cells stably expressing human MRGPRD (versus 100 μM β-Alanine agonist). The class given is cell-based. Summed up:
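IP-1 HTRF read-out, with IC50 from HTRF ratio curves and percent antagonism relative to maximal efficacy (mean, SEM). Antagonists and agonist were co-incubated 1 h at 37 °C plus 1 h at room temperature on overnight-plated MRGPRD-CHO cells in LiCl-containing Tris buffer, pH 8.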
A general note: TR-FRET usually uses a lanthanide donor and a delayed reading to cut background.

The structures appear in SMILES notation.

Chain of human MRGPRD (Q8TDS7 whole entry): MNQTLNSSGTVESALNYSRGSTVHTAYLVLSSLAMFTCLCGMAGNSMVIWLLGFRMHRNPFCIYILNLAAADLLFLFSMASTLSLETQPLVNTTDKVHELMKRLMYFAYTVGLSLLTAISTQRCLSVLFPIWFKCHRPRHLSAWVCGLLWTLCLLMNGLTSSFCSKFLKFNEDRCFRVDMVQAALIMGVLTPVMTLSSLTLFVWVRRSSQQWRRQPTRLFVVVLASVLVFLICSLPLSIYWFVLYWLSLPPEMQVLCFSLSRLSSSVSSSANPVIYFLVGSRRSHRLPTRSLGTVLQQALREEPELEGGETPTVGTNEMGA

For the molecule `Cc1nn(C)c(C)c1-c1ccc(-n2nnc(C(=O)NC3CC3)c2C(C)C)cc1` [Compound 17-34], the IC50 (in general, the concentration that gives 50% inhibition) is greater than 3 µM.

For `N#Cc1ccc(-c2ccc(-n3nnc(C(=O)NC4(c5cncc(Cl)c5)CC4)c3C3CC3)cc2)cc1` [Compound 18-1], the IC50 fell in the range of 0.1 to 0.5 µM. In turn, `CCc1ccc(C2(NC(=O)c3nnn(-c4ccc(-c5ccc(C#N)cc5)cc4)c3C3CC3)CC2)cn1` [Compound 18-2] yielded an IC50 of 0.1 to 0.5 µM.

Molecule `N#Cc1ccc(-c2ccc(-n3nnc(C(=O)NC4(c5cccnc5)CC4)c3C3CC3)cc2)cc1` [Compound 18-3, 1-(4′-cyano-[1,1′-biphenyl]-4-yl)-5-cyclopropyl-N-(1-(pyridin-3-yl)cyclopropyl)-1H-1,2,3-triazole-4-carboxamide] registered an IC50 of 0.5 to 1 µM. In the case of `NC(=O)c1ccc(-c2ccc(-n3nnc(C(=O)NC4(c5cccnc5)CC4)c3C3CC3)cc2)cc1` [Compound 18-4] it was 1 to 3 µM.

With `Cc1cncc(C2(NC(=O)c3nnn(-c4ccc(-c5ccc(C#N)cc5)cc4)c3C3CC3)CC2)c1` [Compound 18-5], the IC50 is 1 to 3 µM. `COc1cncc(C2(NC(=O)c3nnn(-c4ccc(-c5ccc(C#N)cc5)cc4)c3C3CC3)CC2)c1` [Compound 18-6] yielded an IC50 of 1 to 3 µM.

`COc1ccc(C2(NC(=O)c3nnn(-c4ccc(-c5ccc(C(N)=O)cc5)cc4)c3C3CC3)CC2)cn1` [Compound 18-7]: the concentration for half-maximal inhibition (IC50) was in the range of 1 to 3 µM. In the case of `N#Cc1ccc(-c2ccc(-n3nnc(C(=O)NC4(c5cccnc5)CC4)c3C3CC3)cc2)cn1` [Compound 18-8] it was 1 to 3 µM. For `N#CCc1ccc(-c2ccc(-n3nnc(C(=O)NC4(c5cccnc5)CC4)c3C3CC3)cc2)cc1` [Compound 18-9] the value was 1 to 3 µM; for `NC(=O)c1ccc(-c2ccc(-n3nnc(C(=O)NC4(c5cccnc5)CC4)c3C3CC3)cc2)cn1` [Compound 18-10], 1 to 3 µM.

Consider `Cc1nn(-c2ccccc2)c(C)c1-c1ccc(-n2nnc(C(=O)NC3(c4cccnc4)CC3)c2C2CC2)cc1` [Compound 18-11], for which the IC50 is less than 0.1 µM.

`CCn1cc(C2(NC(=O)c3nnn(-c4ccc(-c5ccccc5)cc4)c3C3CC3)CC2)cn1` [Compound 18-12]: the IC50 fell in the range of 1 to 3 µM. `N#Cc1ccc(-c2ccc(-n3nnc(C(=O)NC4(c5cncc(Cl)c5)CC4)c3C3CC3)cc2)cc1F` [Compound 18-13]: the half-inhibitory concentration (IC50) is 0.1 to 0.5 µM. For `CCn1cc(C2(NC(=O)c3nnn(-c4ccc(-c5ccc(C#N)c(F)c5)cc4)c3C3CC3)CC2)cn1` [Compound 18-14] the value was 0.1 to 0.5 µM; for `COc1cc(C#N)ccc1-c1ccc(-n2nnc(C(=O)NC3(c4cncc(Cl)c4)CC3)c2C2CC2)cc1` [Compound 18-15], 0.5 to 1 µM. Molecule `Cc1cc(C#N)ccc1-c1ccc(-n2nnc(C(=O)NC3(c4cncc(Cl)c4)CC3)c2C2CC2)cc1` [Compound 18-16] showed an IC50 of 0.5 to 1 µM. `Cc1nn(C)c(C)c1-c1ccc(-n2nnc(C(=O)NC3(c4cccnc4)CC3)c2C2CC2)cc1` [Compound 18-17] showed an IC50 of 1 to 3 µM. For `N#Cc1ccc(-c2ccc(-n3nnc(C(=O)NC4(c5cncc(F)c5)CC4)c3C3CC3)cc2)cc1` [Compound 18-18] the value was 1 to 3 µM; for `O=C(NC1(c2cncc(Cl)c2)CC1)c1nnn(-c2ccc(-c3cnn(Cc4ccccc4)c3)cc2)c1C1CC1` [Compound 18-19], 1 to 3 µM.

Regarding `CC(=O)c1cccc(-c2cccc(-n3nnc(C(=O)NC4(c5cccnc5)CC4)c3C3CC3)c2)c1` [Compound 18-20], the IC50 is 0.1 to 0.5 µM. In the case of `N#CCc1ccc(-c2cccc(-n3nnc(C(=O)NC4(c5cccnc5)CC4)c3C3CC3)c2)cc1` [Compound 18-21] it was 1 to 3 µM. For `CC(=O)c1cccc(-c2cccc(-n3nnc(C(=O)NC(C)c4nc5ccccc5n4C)c3C3CC3)c2)c1` (centres unmarked) [Compound 18-22] the value was greater than 3 µM; for `Cc1nn(C)c(C)c1-c1ccc(-n2nnc(C(=O)NC3(c4cccnc4)CC3)c2C(C)C)cc1` [Compound 18-23], 0.1 to 0.5 µM. Molecule `COc1ccc(C2(NC(=O)c3nnn(-c4ccc(-c5ccc(C#N)cc5)cc4)c3C(C)C)CC2)cn1` [Compound 18-24] showed an IC50 of 0.5 to 1 µM. As for `COc1ccc(C2(NC(=O)c3nnn(-c4ccc(-c5c(C)nn(C)c5C)cc4)c3C(C)C)CC2)cn1` [Compound 18-25], the IC50 fell in the range of 0.5 to 1 µM. In turn, `CC(C)c1c(C(=O)NC2(c3cccnc3)CC2)nnn1-c1ccc(-c2ccc(C#N)c(F)c2)cc1` [Compound 18-26] came in with an IC50 of 1 to 3 µM. In the case of `CCn1cc(C2(NC(=O)c3nnn(-c4ccc(-c5ccc(C#N)nc5)cc4)c3C(C)C)CC2)cn1` [Compound 18-27] it was 1 to 3 µM; in that of `COc1ccc(C2(NC(=O)c3nnn(-c4ccc(-c5ccccc5)cc4)c3C(C)C)CC2)cn1` [Compound 18-28], 1 to 3 µM; in that of `CC(C)c1c(C(=O)NC2(c3cccnc3)CC2)nnn1-c1ccc(-c2ccc(C#N)nc2)cc1` [Compound 18-29], greater than 3 µM. As to `CC(C)c1c(C(=O)NC2(c3cccnc3)CC2)nnn1-c1ccc(-c2ccccc2)cc1` [Compound 18-30], the IC50 is greater than 3 µM.

With `Cc1ccc(CNC(=O)c2nnn(-c3ccc(-c4c(C)nn(C)c4C)cn3)c2C2CC2)cn1` [Compound 19-1], the IC50 lay in the range of 0.5 to 1 µM. Turning to `CCn1nc(C)c(-c2ccc(-n3nnc(C(=O)NC4(c5cccnc5)CC4)c3C3CC3)cc2)c1C` [Compound 19-2, 5-cyclopropyl-1-(4-(1-ethyl-3,5-dimethyl-1H-pyrazol-4-yl)phenyl)-N-(1-(pyridin-3-yl)cyclopropyl)-1H-1,2,3-triazole-4-carboxamide], the IC50 was 0.1 to 0.5 µM. For `Cc1nn2ccccc2c1-c1ccc(-n2nnc(C(=O)NC3(c4cccnc4)CC3)c2C2CC2)cc1` [Compound 19-3] the value was 0.5 to 1 µM; for `COc1ccc(C2(NC(=O)c3nnn(-c4ccc(-c5c(C)nn6ccccc56)cc4)c3C(C)C)CC2)cn1` [Compound 19-4], 0.1 to 0.5 µM. For `Cc1cc(NC(=O)c2nnn(-c3ccc(-c4c(C)nn(CC(F)(F)F)c4C)cc3)c2C2CC2)ccn1` [Compound 20-1, 5-cyclopropyl-1-(4-(3,5-dimethyl-1-(2,2,2-trifluoroethyl)-1H-pyrazol-4-yl)phenyl)-N-(2-methylpyridin-4-yl)-1H-1,2,3-triazole-4-carboxamide] the value was less than 0.1 µM. Consider `Cc1ccc(CNC(=O)c2nnn(-c3ccc(-c4c(C)nn(C)c4C)cc3F)c2C2CC2)cn1` [Compound 21-1, 5-cyclopropyl-1-(2-fluoro-4-(1,3,5-trimethyl-1H-pyrazol-4-yl)phenyl)-N-((6-methylpyridin-3-yl)methyl)-1H-1,2,3-triazole-4-carboxamide], for which the IC50 is less than 0.1 µM. In the case of `COc1cc(-c2c(C)nn(C)c2C)ccc1-n1nnc(C(=O)NCc2ccc(C)nc2)c1C1CC1` [Compound 21-2] it was 0.1 to 0.5 µM; in that of `Cc1cc(NC(=O)c2nnn(-c3ccc(-c4ccc(C#N)cc4)cc3F)c2C2CC2)ccn1` [Compound 22-1, 1-(4′-cyano-3-fluoro-[1,1′-biphenyl]-4-yl)-5-cyclopropyl-N-(2-methylpyridin-4-yl)-1H-1,2,3-triazole-4-carboxamide], 0.1 to 0.5 µM. `N#Cc1ccc(-c2ccc(-n3nnc(C(=O)NC4(c5cccnc5)CC4)c3C3CC3)c(F)c2)cc1` [Compound 22-2] displayed an IC50 of 0.5 to 1 µM.

`CCn1cc(CNC(=O)c2nnn(-c3ccc(-c4ccc(C#N)cc4)cc3F)c2C2CC2)cn1` [Compound 22-3] registered a concentration for half-maximal inhibition (IC50) of 1 to 3 µM.

The values above are taken from patent US20260001871A1, “TRIAZOLE DERIVATIVES AS MODULATORS OF MAS-RELATED G-PROTEIN RECEPTOR D” (ESCIENT PHARMACEUTICALS, INC., priority 2022, published 2026).
